Like-named read-outs stand apart in the source and are kept apart here.
Experiments:
Test in all cases: biochemical
GSK3A = GSK3A (Homo sapiens, UniProt P49840)
MEK6 = MEK6 (Homo sapiens, UniProt P52564)
MARK1 = MARK1 (Homo sapiens, UniProt Q9P0L2)
GRK4 = GRK4 (Homo sapiens, UniProt P32298)
FGFR4 = FGFR4 (Homo sapiens, UniProt P22455)
BIKE = BIKE (Homo sapiens, UniProt Q9NSY1)
EGFR = EGFR (Homo sapiens, UniProt P00533)
JNK1 = JNK1 (Homo sapiens, UniProt P45983)
DCAMKL1 = DCAMKL1 (Homo sapiens, UniProt O15075)
CDK4-cyclinD3 = CDK4-cyclinD3 (Homo sapiens, UniProt P11802)
IKK-epsilon = IKK-epsilon (Homo sapiens, UniProt Q14164)
CDKL3 = CDKL3 (Homo sapiens, UniProt Q8IVW4)
FGFR2 = FGFR2 (Homo sapiens, UniProt P21802)
FGFR2, sequence (P21802 whole entry): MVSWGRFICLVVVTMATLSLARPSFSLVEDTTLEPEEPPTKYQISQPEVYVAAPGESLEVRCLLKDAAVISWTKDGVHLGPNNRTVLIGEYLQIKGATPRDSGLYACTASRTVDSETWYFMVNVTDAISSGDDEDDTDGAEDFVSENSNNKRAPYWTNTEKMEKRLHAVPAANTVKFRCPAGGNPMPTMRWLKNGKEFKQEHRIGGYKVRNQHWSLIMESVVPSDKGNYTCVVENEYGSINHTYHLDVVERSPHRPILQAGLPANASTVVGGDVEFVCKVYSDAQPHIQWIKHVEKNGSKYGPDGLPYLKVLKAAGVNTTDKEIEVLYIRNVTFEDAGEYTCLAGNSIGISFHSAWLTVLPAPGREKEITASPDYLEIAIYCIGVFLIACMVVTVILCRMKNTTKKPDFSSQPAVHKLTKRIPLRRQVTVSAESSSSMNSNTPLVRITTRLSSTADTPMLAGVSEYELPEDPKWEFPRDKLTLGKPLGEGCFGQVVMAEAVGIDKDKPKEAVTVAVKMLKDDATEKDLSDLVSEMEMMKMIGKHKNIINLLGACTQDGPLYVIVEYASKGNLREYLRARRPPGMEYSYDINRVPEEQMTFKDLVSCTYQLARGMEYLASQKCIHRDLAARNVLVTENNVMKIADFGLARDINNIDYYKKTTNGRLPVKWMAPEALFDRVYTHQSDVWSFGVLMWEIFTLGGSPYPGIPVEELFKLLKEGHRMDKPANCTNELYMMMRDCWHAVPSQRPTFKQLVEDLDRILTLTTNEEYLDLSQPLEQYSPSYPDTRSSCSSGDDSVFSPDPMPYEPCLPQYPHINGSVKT

LIMK1 = LIMK1 (Homo sapiens, UniProt P53667)
AURKB = AURKB (Homo sapiens, UniProt Q96GD4)
AURKB, sequence (Q96GD4 whole entry): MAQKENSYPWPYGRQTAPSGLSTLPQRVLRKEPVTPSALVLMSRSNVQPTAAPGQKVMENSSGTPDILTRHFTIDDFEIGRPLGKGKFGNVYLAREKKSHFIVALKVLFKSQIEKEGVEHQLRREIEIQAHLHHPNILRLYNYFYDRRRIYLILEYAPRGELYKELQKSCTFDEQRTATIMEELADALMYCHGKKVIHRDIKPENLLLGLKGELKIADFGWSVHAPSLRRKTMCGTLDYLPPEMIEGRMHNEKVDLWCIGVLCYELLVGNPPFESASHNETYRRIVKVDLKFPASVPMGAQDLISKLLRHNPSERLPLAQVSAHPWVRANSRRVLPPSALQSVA

CSNK1G1 = CSNK1G1 (Homo sapiens, UniProt Q9HCP0)
MST4 = MST4 (Homo sapiens, UniProt Q9P289)
DYRK1A = DYRK1A (Homo sapiens, UniProt Q13627)
ANKK1 = ANKK1 (Homo sapiens, UniProt Q8NFD2)
LOK = LOK (Homo sapiens, UniProt O94804)
DMPK2 = DMPK2 (Homo sapiens, UniProt Q6DT37)
CAMKK1 = CAMKK1 (Homo sapiens, UniProt Q8N5S9)
CAMKK1, sequence (Q8N5S9 whole entry): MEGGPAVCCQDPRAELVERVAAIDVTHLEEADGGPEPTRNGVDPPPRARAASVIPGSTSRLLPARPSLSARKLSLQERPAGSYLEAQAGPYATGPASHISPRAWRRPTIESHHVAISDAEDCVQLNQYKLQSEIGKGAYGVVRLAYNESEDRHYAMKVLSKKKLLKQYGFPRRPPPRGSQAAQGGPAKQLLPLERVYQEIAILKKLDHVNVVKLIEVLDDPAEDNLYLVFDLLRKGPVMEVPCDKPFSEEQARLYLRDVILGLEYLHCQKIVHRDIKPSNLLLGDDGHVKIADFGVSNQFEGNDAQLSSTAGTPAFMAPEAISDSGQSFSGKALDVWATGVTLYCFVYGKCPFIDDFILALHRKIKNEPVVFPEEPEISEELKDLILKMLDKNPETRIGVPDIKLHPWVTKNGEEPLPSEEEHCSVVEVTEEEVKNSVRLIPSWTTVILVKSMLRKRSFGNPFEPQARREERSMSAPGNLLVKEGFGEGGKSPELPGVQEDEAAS

CSNK1G2 = CSNK1G2 (Homo sapiens, UniProt P78368)
CSNK1G2, sequence (P78368 whole entry): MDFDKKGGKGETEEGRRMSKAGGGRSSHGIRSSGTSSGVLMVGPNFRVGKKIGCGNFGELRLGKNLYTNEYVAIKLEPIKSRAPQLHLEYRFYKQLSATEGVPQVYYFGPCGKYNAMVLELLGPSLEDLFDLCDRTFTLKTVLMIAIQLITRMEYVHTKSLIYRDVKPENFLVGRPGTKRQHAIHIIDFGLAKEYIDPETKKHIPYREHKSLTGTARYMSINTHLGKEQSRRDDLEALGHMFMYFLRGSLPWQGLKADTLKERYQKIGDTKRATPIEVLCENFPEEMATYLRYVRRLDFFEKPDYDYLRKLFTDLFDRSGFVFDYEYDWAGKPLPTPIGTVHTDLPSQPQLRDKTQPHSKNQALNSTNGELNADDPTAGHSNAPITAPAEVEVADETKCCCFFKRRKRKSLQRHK

MLK1 = MLK1 (Homo sapiens, UniProt P80192)
CAMK2B = CAMK2B (Homo sapiens, UniProt Q13554)
LRRK2 = LRRK2 (Homo sapiens, UniProt Q5S007)
LZK = LZK (Homo sapiens, UniProt O43283)
LZK, sequence (O43283 whole entry): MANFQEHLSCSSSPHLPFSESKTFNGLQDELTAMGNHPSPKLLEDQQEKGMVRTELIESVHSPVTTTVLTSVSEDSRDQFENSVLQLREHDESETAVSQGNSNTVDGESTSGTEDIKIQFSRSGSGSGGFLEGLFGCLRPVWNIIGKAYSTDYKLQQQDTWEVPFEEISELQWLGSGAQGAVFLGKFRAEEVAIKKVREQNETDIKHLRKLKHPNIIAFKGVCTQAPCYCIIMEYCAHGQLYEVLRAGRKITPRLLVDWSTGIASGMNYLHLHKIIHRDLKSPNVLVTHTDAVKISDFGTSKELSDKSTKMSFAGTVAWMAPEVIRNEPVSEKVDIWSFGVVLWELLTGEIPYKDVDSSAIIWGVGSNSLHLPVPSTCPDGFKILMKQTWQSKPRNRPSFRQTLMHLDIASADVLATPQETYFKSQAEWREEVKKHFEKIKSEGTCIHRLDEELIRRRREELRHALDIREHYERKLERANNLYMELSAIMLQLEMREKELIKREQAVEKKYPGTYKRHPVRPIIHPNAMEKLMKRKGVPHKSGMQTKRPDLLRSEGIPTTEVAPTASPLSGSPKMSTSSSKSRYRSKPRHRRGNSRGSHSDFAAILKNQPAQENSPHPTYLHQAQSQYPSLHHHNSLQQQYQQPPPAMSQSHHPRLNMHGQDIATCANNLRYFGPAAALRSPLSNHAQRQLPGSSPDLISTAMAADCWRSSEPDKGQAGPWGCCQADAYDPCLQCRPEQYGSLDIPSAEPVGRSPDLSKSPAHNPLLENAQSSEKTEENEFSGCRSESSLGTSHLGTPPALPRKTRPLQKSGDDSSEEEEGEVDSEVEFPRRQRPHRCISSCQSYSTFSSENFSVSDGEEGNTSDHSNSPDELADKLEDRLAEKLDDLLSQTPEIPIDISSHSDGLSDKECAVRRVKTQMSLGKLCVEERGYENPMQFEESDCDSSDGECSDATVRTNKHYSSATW

MEK2 = MEK2 (Homo sapiens, UniProt P36507)
MEK2, sequence (P36507 whole entry): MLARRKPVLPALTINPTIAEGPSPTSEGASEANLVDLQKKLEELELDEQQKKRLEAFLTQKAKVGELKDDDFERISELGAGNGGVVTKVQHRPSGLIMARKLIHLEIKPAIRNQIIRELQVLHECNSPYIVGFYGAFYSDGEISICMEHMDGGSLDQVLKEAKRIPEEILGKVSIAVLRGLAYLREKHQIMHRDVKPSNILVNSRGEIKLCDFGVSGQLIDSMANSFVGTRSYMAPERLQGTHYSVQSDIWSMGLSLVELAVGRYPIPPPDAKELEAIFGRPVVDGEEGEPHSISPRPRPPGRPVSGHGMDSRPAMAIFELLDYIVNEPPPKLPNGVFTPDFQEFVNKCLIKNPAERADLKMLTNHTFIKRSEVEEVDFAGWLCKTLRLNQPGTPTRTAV

CSF1R = CSF1R (Homo sapiens, UniProt P07333)
CSF1R, sequence (P07333 whole entry): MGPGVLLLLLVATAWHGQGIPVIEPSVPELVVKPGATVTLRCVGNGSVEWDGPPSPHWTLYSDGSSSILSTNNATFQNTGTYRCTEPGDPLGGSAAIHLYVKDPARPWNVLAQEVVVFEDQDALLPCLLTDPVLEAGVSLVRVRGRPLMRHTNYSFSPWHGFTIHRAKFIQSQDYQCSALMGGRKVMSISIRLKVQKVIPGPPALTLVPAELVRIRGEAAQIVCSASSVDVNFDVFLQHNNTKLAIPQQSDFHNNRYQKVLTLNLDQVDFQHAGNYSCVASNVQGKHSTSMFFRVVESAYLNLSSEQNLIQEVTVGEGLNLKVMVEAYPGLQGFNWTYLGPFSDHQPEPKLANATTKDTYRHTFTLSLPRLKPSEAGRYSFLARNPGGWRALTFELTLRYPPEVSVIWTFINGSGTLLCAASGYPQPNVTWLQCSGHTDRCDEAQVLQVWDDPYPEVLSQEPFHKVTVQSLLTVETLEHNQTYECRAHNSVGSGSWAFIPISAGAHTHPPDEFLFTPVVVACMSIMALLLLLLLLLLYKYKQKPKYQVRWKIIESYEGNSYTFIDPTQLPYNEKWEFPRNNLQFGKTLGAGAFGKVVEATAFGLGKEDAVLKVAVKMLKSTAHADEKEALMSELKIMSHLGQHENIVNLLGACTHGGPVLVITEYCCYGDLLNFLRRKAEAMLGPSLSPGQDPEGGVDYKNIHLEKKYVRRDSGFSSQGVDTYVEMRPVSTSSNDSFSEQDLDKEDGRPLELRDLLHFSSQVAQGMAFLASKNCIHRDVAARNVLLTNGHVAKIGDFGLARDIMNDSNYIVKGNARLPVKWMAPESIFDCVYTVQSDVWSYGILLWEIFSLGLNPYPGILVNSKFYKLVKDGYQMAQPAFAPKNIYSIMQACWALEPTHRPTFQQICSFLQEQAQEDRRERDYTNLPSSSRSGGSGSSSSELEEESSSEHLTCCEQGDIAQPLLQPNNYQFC

EGFR(L861Q) = EGFR(L861Q) (Homo sapiens, UniProt P00533, L861Q)
[1] = read-out: CPT-1-70-1 (1uM) % control
[2] = read-out: HYJ-2-002-1 (1uM) % control

JNK1, sequence (P45983 whole entry): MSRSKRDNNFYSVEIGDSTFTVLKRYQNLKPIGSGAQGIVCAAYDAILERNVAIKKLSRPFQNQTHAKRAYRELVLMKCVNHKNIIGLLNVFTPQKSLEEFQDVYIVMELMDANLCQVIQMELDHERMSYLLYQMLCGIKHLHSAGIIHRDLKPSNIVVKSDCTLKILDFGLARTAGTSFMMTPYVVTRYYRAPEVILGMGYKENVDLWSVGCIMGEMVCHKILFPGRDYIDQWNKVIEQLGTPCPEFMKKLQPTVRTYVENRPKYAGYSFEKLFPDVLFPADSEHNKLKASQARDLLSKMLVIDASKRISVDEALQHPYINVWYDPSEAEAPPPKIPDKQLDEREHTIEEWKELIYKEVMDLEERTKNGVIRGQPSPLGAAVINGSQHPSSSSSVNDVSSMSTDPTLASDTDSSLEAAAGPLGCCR

CN1CCN(c2ccc(Nc3nc(Oc4ccc(NC(=O)CCl)cc4)c4cc[nH]c4n3)cc2)CC1 [CPT1-70-1]
remaining activity at 1 µM (GSK3A; [1]): 100% | remaining activity at 1 µM (MEK6; [1]): 55% | remaining activity at 1 µM (MARK1; [1]): 2.1% | remaining activity at 1 µM (GRK4; [1]): 100% | remaining activity at 1 µM (FGFR4; [1]): 60% | remaining activity at 1 µM (BIKE; [1]): 18% | remaining activity at 1 µM (EGFR; [1]): 63% | remaining activity at 1 µM (JNK1; [1]): 2.4% | remaining activity at 1 µM (DCAMKL1; [1]): 100% | remaining activity at 1 µM (CDK4-cyclinD3; [1]): 100% | remaining activity at 1 µM (IKK-epsilon; [1]): 100% | remaining activity at 1 µM (CDKL3; [1]): 100% | remaining activity at 1 µM (FGFR2; [1]): 22% | remaining activity at 1 µM (LIMK1; [1]): 90% | remaining activity at 1 µM (AURKB; [1]): 61% | remaining activity at 1 µM (CSNK1G1; [1]): 18% | remaining activity at 1 µM (MST4; [1]): 49% | remaining activity at 1 µM (DYRK1A; [1]): 100% | remaining activity at 1 µM (ANKK1; [1]): 93% | remaining activity at 1 µM (LOK; [1]): 100% | remaining activity at 1 µM (DMPK2; [1]): 67% | remaining activity at 1 µM (CAMKK1; [1]): 84% | remaining activity at 1 µM (CSNK1G2; [1]): 0.7% | remaining activity at 1 µM (MLK1; [1]): 9% | remaining activity at 1 µM (CAMK2B; [1]): 100% | remaining activity at 1 µM (LRRK2; [1]): 7.5% | remaining activity at 1 µM (LZK; [1]): 73% | remaining activity at 1 µM (MEK2; [1]): 19% | remaining activity at 1 µM (CSF1R; [1]): 12% | remaining activity at 1 µM (EGFR(L861Q); [1]): 18%

CCN1CCN(Cc2ccc(NC(=O)c3ccc(C)c(CCc4cnc5[nH]ccc5c4OC)c3)cc2C(F)(F)F)CC1 [HYJ-2-002-1]
remaining activity at 1 µM (GSK3A; [2]): 78% | remaining activity at 1 µM (MEK6; [2]): 91% | remaining activity at 1 µM (MARK1; [2]): 100% | remaining activity at 1 µM (GRK4; [2]): 100% | remaining activity at 1 µM (FGFR4; [2]): 4.4% | remaining activity at 1 µM (BIKE; [2]): 96% | remaining activity at 1 µM (EGFR; [2]): 5% | remaining activity at 1 µM (JNK1; [2]): 72% | remaining activity at 1 µM (DCAMKL1; [2]): 100% | remaining activity at 1 µM (CDK4-cyclinD3; [2]): 100% | remaining activity at 1 µM (IKK-epsilon; [2]): 94% | remaining activity at 1 µM (CDKL3; [2]): 34% | remaining activity at 1 µM (FGFR2; [2]): 5.7% | remaining activity at 1 µM (LIMK1; [2]): 26% | remaining activity at 1 µM (AURKB; [2]): 43% | remaining activity at 1 µM (CSNK1G1; [2]): 93% | remaining activity at 1 µM (MST4; [2]): 98% | remaining activity at 1 µM (DYRK1A; [2]): 62% | remaining activity at 1 µM (ANKK1; [2]): 9.4% | remaining activity at 1 µM (LOK; [2]): 0.75% | remaining activity at 1 µM (DMPK2; [2]): 92% | remaining activity at 1 µM (CAMKK1; [2]): 100% | remaining activity at 1 µM (CSNK1G2; [2]): 45% | remaining activity at 1 µM (MLK1; [2]): 100% | remaining activity at 1 µM (CAMK2B; [2]): 74% | remaining activity at 1 µM (LRRK2; [2]): 94% | remaining activity at 1 µM (LZK; [2]): 78% | remaining activity at 1 µM (MEK2; [2]): 22% | remaining activity at 1 µM (CSF1R; [2]): 0.45% | remaining activity at 1 µM (EGFR(L861Q); [2]): 0.85%
